According to US7425640B2, “Substituted 5-carboxyamide pyrazoles and [1,2,4]triazoles as antiviral agents” (priority 2004, dated 2008):

target: HCV RNA-dependent RNA polymerase NS5B (Δ21) (Hepatitis C virus genotype 1b, UniProt P26663); assay: Assay for HCV RNA-dependent RNA polymerase activity (SPA, [3H]-GTP incorporation); assay type: biochemical; details: Δ21 Activity (IC50 μM), 50 nM NS5B (Δ21), class symbols
Summary of the method: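 NS5B (Δ21), 50 nM, was incubated 3 h at room temperature with biotinylated oligoG12/polyC template, 5 μM GTP plus [3H]-GTP, in HEPES pH 7.3 with MgCl2 and NaCl. [3H]-GTP incorporation was read by streptavidin SPA. IC50 came from single experiments across 11 two-fold dilutions (0.05–50 μM).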

Chain of HCV RNA-dependent RNA polymerase NS5B (Δ21) (P26663 2420-2989, stated change not applied): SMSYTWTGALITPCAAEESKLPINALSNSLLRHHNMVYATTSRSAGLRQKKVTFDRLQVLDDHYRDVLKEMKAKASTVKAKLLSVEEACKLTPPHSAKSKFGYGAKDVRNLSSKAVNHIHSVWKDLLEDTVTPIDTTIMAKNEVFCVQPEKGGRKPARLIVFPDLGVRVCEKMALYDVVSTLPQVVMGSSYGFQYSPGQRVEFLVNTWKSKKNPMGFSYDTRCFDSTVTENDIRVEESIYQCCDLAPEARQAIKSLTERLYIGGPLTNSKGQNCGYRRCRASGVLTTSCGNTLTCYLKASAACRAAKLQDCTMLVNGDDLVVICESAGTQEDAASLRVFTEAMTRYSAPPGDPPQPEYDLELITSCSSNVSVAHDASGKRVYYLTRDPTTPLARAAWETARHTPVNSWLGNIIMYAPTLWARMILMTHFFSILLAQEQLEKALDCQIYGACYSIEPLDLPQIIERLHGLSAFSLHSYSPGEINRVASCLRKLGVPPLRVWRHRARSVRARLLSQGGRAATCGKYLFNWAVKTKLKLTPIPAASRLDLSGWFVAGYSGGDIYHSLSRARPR

Compound	IC50 [µM]
O=C(Cn1nc(C(=O)NCC(c2ccccc2)c2ccccc2)cc1C(=O)N[C@H]1CCCC[C@@H]1OCc1ccccc1)NC1CCCC[C@@H]1OCc1ccccc1 (stereo partly drawn) [Compound 204]	> 1
Nc1cc(C(=O)N[C@H]2CCCC[C@@H]2OCc2ccccc2)n(CC(=O)NC2CCCC[C@@H]2OCc2ccccc2)n1 (stereo partly drawn) [Compound 205]	> 1
CCOC(=O)c1cc(C(=O)N[C@H]2CCCC[C@@H]2OCc2ccccc2)n(CC(=O)Nc2cc(C)ccc2OCC2CCC2)n1 [Compound 206]	> 1
O=C(Cn1nc(C(=O)O)cc1C(=O)NC12CC3CC(CC(C3)C1)C2)NC1CCCC[C@@H]1OCc1ccccc1 (stereo partly drawn) [Compound 207]	> 1
Cc1ccc(OCn2nc(C)cc2C)c(NC(=O)c2cc(C(=O)O)nn2CC(=O)N[C@H]2CCCC[C@@H]2OCc2ccccc2)c1 [Compound 208]	> 1
Nc1ccccc1Oc1ccccc1CNC(=O)c1cc(C(=O)O)nn1CC(=O)N[C@H]1CCCC[C@@H]1OCc1ccccc1 [Compound 209]	> 1
CCOC(=O)c1cc(C(=O)N(C)[C@H]2CCCC[C@@H]2OCc2ccccc2)n(CC(=O)N(C)C2CCCC[C@@H]2OCc2ccccc2)n1 (stereo partly drawn) [Compound 210]	> 1
O=C(Cn1nc(C(=O)O)cc1C(=O)N[C@H]1CCCC[C@@H]1OCc1ccccc1)NC1CCCC[C@@H]1N1CCOCC1 (stereo partly drawn) [Compound 211]	> 1

same assay, conditions: Δ21 Activity (IC50 μM), 50 nM NS5B (Δ21), numeric values

Compound	IC50 [µM]
Cc1ccc(OCc2ccccc2)c(NC(=O)c2cc(-c3nnn[nH]3)nn2CC(=O)N[C@H]2CCCC[C@@H]2OCc2ccccc2)c1 [drawing 240]	0.02
Cc1ccc(OCC2CCCC2)c(NC(=O)c2cc(C(=O)O)nn2CC(=O)N[C@H]2CCCC[C@@H]2OCc2ccccc2)c1 [drawing 241]	0.023
O=C(Cn1nc(C(=O)O)cc1C(=O)Nc1cc(Cl)ccc1OCC1CCCCC1)N[C@H]1CCCC[C@@H]1OCc1ccccc1 [drawing 242]	0.02
Cc1ccc(OCC2CCCCC2)c(NC(=O)c2cc(C(=O)NC#N)nn2CC(=O)N[C@H]2CCCC[C@@H]2OCc2ccccc2)c1 [drawing 243]	0.037
Cc1ccc(OCC2CCCCC2)c(NC(=O)c2cc(C(=O)O)nn2CC(=O)N[C@H]2CCCC[C@@H]2OCc2ccccc2)c1 [drawing 244]	0.033
N#CNC(=O)c1cc(C(=O)Nc2ccccc2OCc2ccccc2)n(CC(=O)N[C@H]2CCCC[C@@H]2OCc2ccccc2)n1 [drawing 245]	0.024
C[C@@H](NC(=O)c1cc(C(=O)N[C@H]2CCCC[C@@H]2OCc2ccccc2)n(CC(=O)N[C@H]2CCCC[C@@H]2OCc2ccccc2)n1)c1cccc2ccccc12 [drawing 246]	0.15
Cc1ccc(OCc2ccsc2)c(NC(=O)c2cc(C(=O)O)nn2CC(=O)N[C@H]2CCCC[C@@H]2OCc2ccccc2)c1 [drawing 247]	0.032
Cc1ccc(OCC2CCC2)c(NC(=O)c2cc(C(=O)O)nn2CC(=O)N[C@H]2CCCC[C@@H]2OCc2ccccc2)c1 [drawing 248]	0.055
O=C(Cn1nc(C(=O)O)cc1C(=O)Nc1ccc(F)cc1OCC1CCCCC1)N[C@H]1CCCC[C@@H]1OCc1ccccc1 [drawing 249]	0.035
O=C(Cn1nc(NS(=O)(=O)c2ccc(Cl)cc2)cc1C(=O)N[C@H]1CCCC[C@@H]1OCc1ccccc1)N[C@H]1CCCC[C@@H]1OCc1ccccc1 [drawing 250]	0.036
O=C(Cn1nc(C(=O)O)cc1C(=O)Nc1cc(Br)ccc1OCC1CCCCC1)N[C@H]1CCCC[C@@H]1OCc1ccccc1 [drawing 251]	0.037
O=C(Cn1nc(NS(=O)(=O)c2ccc(Br)cc2)cc1C(=O)N[C@H]1CCCC[C@@H]1OCc1ccccc1)N[C@H]1CCCC[C@@H]1OCc1ccccc1 [drawing 252]	0.041
O=C(Cn1nc(C(=O)O)cc1C(=O)Nc1cc(C(F)(F)F)ccc1OCc1ccccc1)N[C@H]1CCCC[C@@H]1OCc1ccccc1 [drawing 253]	0.041
N#CNC(=O)c1cc(C(=O)N[C@H]2CCCC[C@@H]2OCc2ccccc2)n(CC(=O)N[C@H]2CCCC[C@@H]2OCc2ccccc2)n1 [drawing 254]	0.042
COc1cccc(NC(=O)c2cc(C(=O)N[C@H]3CCCC[C@@H]3OCc3ccccc3)n(CC(=O)N[C@H]3CCCC[C@@H]3OCc3ccccc3)n2)c1 [drawing 255]	0.045
